Experimental findings from patent US20160281050A1, “METHODS FOR TREATING A CULTURE OF HAEMATOCOCCUS PLUVIALIS FOR CONTAMINATION USING SALT AND HYDROGEN PEROXIDE” (HELIAE DEVELOPMENT LLC, priority 2015, published 2016) are described below.

This test concerns chytrids. Put plainly: % chytrid infection in flasks, salt treatment (Example 12). The class given is cell-based. How it is done:
This test was done side by side in flasks (0.1 L) and in reactors located in a greenhouse operating in conditions: reactor volume of 230 L; Daily PAR of 20 mol m^−2 d^−1; pH (not measured); and paddlewheel speed of 21 RPM. […] The flask cultures were mixed by shaking at 140 rpm and received 300-400 μmol/m^2 s of photosynthetically active radiation (PAR) in 12 hour light cycles and constant supply of 2.5% CO2. The motility of the culture was monitored by visual observation under a microscope. […] Nine 230 L reactors were also seeded with culture from bioreactor #2410 on the same day as the flasks and brought to 2 ppt concentration of salt. Once motility of the cells was reduced to <10% (day 3 of culture for flasks and day 2 for 230 L reactors) the level of salt was elevated to a point between 4-18 ppt and compared to the culture in two reactors remaining at 2 ppt salt. Flasks and 230 L reactors were monitored for percentage of cell lysis via visual observation under a microscope, culture dry weight (biomass accumulation in g/L), and percentage of chytrid infection via visual observation under a microscope. Carotenoid production, a proxy for determining astaxanthin, was quantified every other day of culture in the 230 L reactors using the UV method.

With `[Cl-].[Na+]` [NaCl, sodium chloride], the “% Chytrid infection in Flasks” value worked out at 82 ± 17% (2 ppt, 9 d); 96 ± 4% (2 ppt, 11 d); 22 ± 20% (4 ppt, 9 d); 85 ± 16% (4 ppt, 11 d); 18 ± 16% (5 ppt, 9 d); 53 ± 9% (5 ppt, 11 d). Also, the “% Chytrid infection in Flasks” value was 8 ± 11% (6 ppt, 9 d); 19 ± 27% (6 ppt, 11 d); 3 ± 5% (7 ppt, 9 d); 0 ± 0% (7 ppt, 11 d); 1 ± 1% (8 ppt, 9 d); 2 ± 2% (8 ppt, 11 d). In addition, the “% Chytrid infection in Flasks” value (9 ppt, 9 d) was 1 ± 1%; the “% Chytrid infection in Flasks” value (9 ppt, 11 d) was found to be 1 ± 1%; the “% Chytrid infection in Flasks” value (10 ppt, 9 d) is 0 ± 0%; the “% Chytrid infection in Flasks” value (10 ppt, 11 d) was determined as 0 ± 0%; the “% Chytrid infection in Flasks” value (11 ppt, 9 d) worked out at 0 ± 0%; the “% Chytrid infection in Flasks” value (11 ppt, 11 d) is listed as 17 ± 24%. In addition, the chytrid infection (treatments between 7-10 ppt in flasks) is given as 5-10%.
